In publication PMC7563863, “Quantification of Boron Compound Concentration for BNCT Using Positron Emission Tomography” (Cells, 2020):
Blank lines part the entries; values can stand above or below the compound they belong to.

Assays:
[1] = Calculation of boron concentration in thyroid from PET activity concentration and production data; type: in vivo, rat
Source text: As injection solution of the [^18F]NaBF4 tracer contains the majority of unlabeled NaBF4; from the NaBF4 molar concentration in the synthesis solution, we could know the labeled to unlabeled tracer compound concentration ratio at the beginning of the PET study. […] The boron concentration is known only with the spatial resolution of the PET image, which in the Mosaic scanner case is about 2.3 mm. The microscopic details of the boron concentration were inferred from NIS immunofluorescence, assuming that the BF4^− concentration is only significant in NIS-containing cells.
Briefly, at the radiotracer production stage, the mass of NaBF4, Milli-Q water, and activity and volume of the [^18F]F^- Milli-Q water solution arriving from the cyclotron are known. Correcting for ^18F decay during the production and time needed for injection, with the known volume and activity of the produced and injected [^18F]NaBF4 tracer, we can calculate the amount of NaBF4 left from the production stage in the tissue from the activity concentration expressed initially as maximum local value of standard uptake value (SUVmax), then recalculated to kBq/mL and, then, to the molar concentration of ^18F at the beginning of the PET study.
To calculate the boron concentration, we start from calculating the ^18F molar concentration in the product to be injected. At the end of synthesis (EOS, decay-corrected to PET study start), we received 4.3 GBq of [^18F]NaBF4 in 2 mL of saline. As the activity concentration A is A=N/τ , where N is the number of ^18F atoms and τ=t1/2/ln(2) , t1/2 of ^18F being 109.7 min expressed in seconds, and diluted in 25.9 mL of Milli-Q water, we obtained 33.9 nM of [^18F]NaBF4 at the EOS and 351 µM of unlabeled NaBF4. We can calculate the molar concentration in the hyperplasia maximum from the maximum of the curve in Figure 3: 2.3 MBq/mL. […] Dividing the calculated concentration of [^18F]NaBF4 36.8 pM by 9.7 × 10^−5, we receive, therefore, a 381 nM boron concentration, which is […] of the fraction of required 2 mM ^10B concentration for BNCT treatment.

[2] = system: NIS; parameters: method as in PMID 21085047; details: cited from earlier work
[3] = Estimated concentration in the blood after injection; type: in vivo; details: rat
Protocol: The initial concentration of NaBF4 in the blood after injection of 110 mg/kg in the rat is about 16 mM, but as it can be seen from Figure 3, it is expected to drop fast to about 25% at 90 min—that is, to 4 mM. BPA is injected at doses of 500 mg/kg, which in rats, results in an initial concentration in the blood of 37 mM. The transporter of BPA is L-type amino acid transporter (LAT1), which for the most similar compound, phenylalanine has an IC50 of about 60 µM [20]. This is a […] of magnitude higher concentration in the blood for phenylalanine, and BPA still allows reaching therapeutic boron concentrations in the tumor.

[4] = system: thyroid gland; experiment: [^18F]FDG PET/CT of the thyroid gland; type: in vivo, rat
Protocol: PET imaging was carried out in a Mosaic microPET scanner (Philips, Andover, MA, USA) followed by a CT scan in NanoCT (Bioscan/Mediso, Budapest, Hungary). Briefly, animals were anesthetized with isoflurane. A catheter was placed in the tail vein. A radiotracer (41 MBq) was injected with a maximum limit of 5 mL/kg in a bolus injection. In dynamic studies, this was done already in the PET scanner on a heated animal bed (Équipement Vétérinaire MINERVE, Esternay, France). For static studies, animals were awakened and let up for 45-min radiotracer uptake. Then, the animal was anesthetized again and placed in the heated bed of the PET scanner. The dynamic scans were of 90 min centered in the thyroids; the static ones were three beds of 10 cm longitudinal lengths starting from the head towards the tail. Each bed position was scanned for 15 min. CT scans were acquired in 45 kVp with 177 µA at 500 ms exposition and 240 projections per rotation.
PET images were reconstructed using an iterative method with decay, scatter, and random corrections without attenuation correction. […] CT images were reconstructed using the filtered back-projection method with an exact cone-beam and with a Shepp Logan 98% filter, giving a 0.2 mm uniform pixel size. […]

[5] = molecular target: T1, sodium-iodine symporter (NIS) in thyroids (Rattus norvegicus, UniProt Q63008); parameters: method as in PMID 20577737; details: cited from earlier work
T1 construct: It was injected into the tail veins of rats; from tissue; host or cells: thyroid (hyperplastic, perchlorate-treated) of living Wistar rats
T1 sequence (Q63008 1-618): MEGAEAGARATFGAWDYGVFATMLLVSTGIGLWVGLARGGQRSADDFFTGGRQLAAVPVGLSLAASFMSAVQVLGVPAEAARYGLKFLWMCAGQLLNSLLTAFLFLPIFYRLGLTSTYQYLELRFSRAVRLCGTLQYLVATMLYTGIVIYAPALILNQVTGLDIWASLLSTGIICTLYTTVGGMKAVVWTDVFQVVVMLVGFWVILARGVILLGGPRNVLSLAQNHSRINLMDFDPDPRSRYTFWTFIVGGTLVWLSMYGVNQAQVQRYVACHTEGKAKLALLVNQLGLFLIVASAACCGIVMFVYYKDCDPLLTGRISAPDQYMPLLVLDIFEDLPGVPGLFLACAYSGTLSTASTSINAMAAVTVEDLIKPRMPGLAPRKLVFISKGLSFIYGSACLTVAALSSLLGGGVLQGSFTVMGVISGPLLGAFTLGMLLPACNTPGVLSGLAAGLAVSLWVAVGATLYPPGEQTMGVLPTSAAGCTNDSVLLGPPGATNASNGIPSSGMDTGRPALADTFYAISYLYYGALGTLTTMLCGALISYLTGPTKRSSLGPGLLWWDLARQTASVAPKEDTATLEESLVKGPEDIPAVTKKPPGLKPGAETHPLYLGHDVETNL

[6] = molecular target: T1, sodium-iodine symporter (NIS) in thyroids; experiment: Dynamic [^18F]NaBF4 PET/CT of the hyperplastic thyroid, time-activity curve; type: in vivo
Protocol: Female Wistar rats, aged 16–17 weeks old and weighing 200–220 g at the study starting moment, were kept in pathogen-free cages at the animal facilities of the School of Medicine (University of Seville, Seville, Spain) under controlled laboratory conditions (temperature 20 ± 2 °C, humidity 40–50%, lighting regimen of 12 light/12 dark hours). Animals were fed a normal laboratory diet (Teklad diet, Envigo, Cambridgeshire, UK) and fresh tap water ad libitum. The study was approved by the Ethical Committee of the Faculty of Medicine, University of Seville. Animal handling was conducted following the Guide for the Care and Use of Laboratory Animals. Rats were divided into two equal groups: the control group and the treated group. Animals from the treated group received 1% potassium perchlorate (w/v) in the drinking water, ad libitum, for […]. All experiments were carried with the approval of the ethics committee of the University of Seville.
PET imaging was carried out in a Mosaic microPET scanner (Philips, Andover, MA, USA) followed by a CT scan in NanoCT (Bioscan/Mediso, Budapest, Hungary). Briefly, animals were anesthetized with isoflurane. A catheter was placed in the tail vein. A radiotracer (41 MBq) was injected with a maximum limit of 5 mL/kg in a bolus injection. […]

[7] = molecular target: T1, sodium-iodine symporter (NIS) in thyroids; experiment: Two-tissue compartment kinetic modeling of the tracer in the thyroid VOI (PMOD PKIN); type: in vivo; details: two-tissue compartment model, hyperplastic thyroid
Source text: The kinetic modeling of the tracer in VOIs was done using two tissue compartment models shown in Equation (1). Cp is the activity concentration of the tracer in the plasma, C1 and C2 are concentrations in two compartments, k are the kinetic constants, and t is time. The kinetic modeling was done in the PMOD module PKIN using full blood as the input function, with linear interpolation between experimental points taken from the dynamic image of the left ventricle of the heart.
(1) dC2(t)/dt=k3C1(t)−k4C2(t)dC1(t)/dt=K1Cp(t)−(k2 + k3)C1(t) + k4C2(t)

[8] = system: L-type amino acid transporter (LAT1); parameters: method as in PMID 30048132; details: cited from earlier work

fraction of the required 2 mM ^10B concentration reached ([1]; 381 nM boron in hyperplastic thyroid): 19 × 10^−5 | boron concentration in thyroid with hyperplasia ([1]; at peak, after 53 nmol (21 µg/kg) NaBF4 injected): 381 nM | concentration in the blood at 90 min ([3]; 110 mg/kg, expected): 4000 µM | concentration in the blood at 90 min as fraction of initial ([3]; expected from Figure 3 blood curve): about 25%
Structure (SMILES): F[B-](F)(F)F.[Na+] [NaBF4]
IC50 [2]: 1.6 µM

Structure (SMILES): OC[C@H]1OC(O)[C@H]([18F])[C@@H](O)[C@@H]1O (stereo partly drawn) [[^18F]FDG, [^18F]fluorodeoxyglucose]
uptake in control and hyperplastic thyroid ([4]; control thyroid and thyroid with hyperplasia): neither the control nor thyroid with hyperplasia show an abnormal uptake | SUVmax in thyroid tumor ([4]; thyroid tumor): two

molar concentration of [^18F]NaBF4 in thyroid at peak ([1]; hyperplasia maximum, from 2.3 MBq/mL): 36.8 pM | capture in bones ([6]; PET): no capture in bones | peak activity concentration in thyroid ([6]; hyperplastic thyroid, about 17 min after injection): 2.3 MBq/mL | Flux [7]: 0.28 | K1 [7]: 1.89 | Kl/k2 [7]: 3.60 | Vs (distribution volume of the specific binding) [7]: 3.96 | Vt (distribution volume) [7]: 7.56 | k2 [7]: 0.52 | k3 [7]: 0.09 | k3/k4 (nondisplaceable binding potential, BPND) [7]: 1.1 | k4 [7]: 0.08
Structure (SMILES): F[B-](F)(F)F.[Na+] [[^18F]NaBF4]
stability in vivo [5]: stable in vivo

Structure (SMILES): N[C@@H](Cc1ccccc1)C(=O)O [phenylalanine]
IC50 [8]: ~60 µM
